The first experiment deals with T1, Dimer of Gag-Pol polyprotein [489-587] (Human immunodeficiency virus 1, UniProt P12497).
T1 construct: 489-587
Put plainly: Protease Inhibition Assay.
Settings: not given
The text has this: In the presence of HIV-l protease, the substrate is rapidly cleaved into two parts. The biotinylated amino terminal fragment binds to the avidin Pandex beads while the FITC-containing carboxy1 terminal fragment is removed through the membrane.
The molecule `CC(C)[C@@H]1[C@H](OC(=O)N[C@@H](Cc2ccccc2)[C@H](O)CN2C[C@H]3CCCC[C@H]3CC2C(=O)NC(C)(C)C)CCS1(=O)=O` (stereo partly drawn) [(2R,3R)-1,1-dioxo-2-(propan-2-yl)--thiolan-3-yl N-[(2S,3R)-4-[(4aS,8aS)-3-(tert-butylcarbamoyl)-decahydroisoquinolin-2-yl]-3-hydroxy-1-phenylbutan-2-yl]carbamate] yielded an IC50 of 4.3 nM. Take `CC(C)[C@H]1SCC[C@H]1OC(=O)N[C@@H](Cc1ccccc1)[C@H](O)CN1C[C@H]2CCS[C@H]2CC1C(=O)NC(C)(C)C` (stereo partly drawn) [(2R,3R)-2-(propan-2-yl)thiolan-3-yl N-[(2S,3R)-4-[(3aR,7aS)-6-(tert-butylcarbamoyl)-octahydrothieno[3,2-c]pyridin-5-yl]-3-hydroxy-1-phenylbutan-2-yl]carbamate]: 0.26 nM corresponded to half-maximal inhibition (IC50). `CC(C)[C@H]1[C@@H](OC(=O)N[C@@H](CSc2ccccc2)[C@H](O)CN2C[C@H]3CCS[C@H]3CC2C(=O)NC(C)(C)C)CCS1(=O)=O` (stereo partly drawn) [(2S,3S)-1,1-dioxo-2-(propan-2-yl)--thiolan-3-yl N-[(2R,3R)-4-[(3aR,7aS)-6-(tert-butylcarbamoyl)-octahydrothieno[3,2-c]pyridin-5-yl]-3-hydroxy-1-(phenylsulfanyl)butan-2-yl]carbamate] gave an IC50 of 0.95 nM. `CC(C)[C@@H]1SCC[C@@H]1OC(=O)N[C@@H](Cc1ccccc1)[C@H](O)CN1C[C@H]2CCS[C@H]2CC1C(=O)NC(C)(C)C` (some centres not stated) [hydroxyethylene isostere] registered an IC50 of 2.6 nM. In turn, `CC(C)[C@@H]1[C@H](OC(=O)N[C@@H](CSc2ccccc2)[C@H](O)CN2C[C@H]3CCS[C@H]3CC2C(=O)NC(C)(C)C)CCS1(=O)=O` (some centres not stated) [hydroxyethylene isostere] yielded an IC50 of 0.42 nM. Take `CC(C)[C@@H]1[C@H](OC(=O)N[C@@H](Cc2ccccc2)[C@H](O)CN2C[C@H]3CCS[C@H]3CC2C(=O)NC(C)(C)C)CCS1(=O)=O` (some centres not stated) [hydroxyethylene isostere]: the midpoint of inhibition, the IC50, lay at 1.3 nM. On the same count and under the same terms, with `CC(C)[C@H]1[C@@H](OC(=O)N[C@@H](Cc2ccccc2)[C@H](O)CN2C[C@H]3CCS[C@H]3CC2C(=O)NC(C)(C)C)CCS1(=O)=O` (some centres not stated) [hydroxyethylene isostere] the figure was 2.6 nM.

The same experiment, now with this note: pH 5.5; 22 °C.
The molecule `C[C@@H]1OCC[C@@H]1OC(=O)N[C@@H](CSc1ccccc1)[C@H](O)CN1C[C@H]2CCS[C@H]2CC1C(=O)NC(C)(C)C` (stereo partly drawn) [(2S,3S)-2-methyloxolan-3-yl N-[(2R,3R)-4-[(3aR,7aS)-6-(tert-butylcarbamoyl)-octahydrothieno[3,2-c]pyridin-5-yl]-3-hydroxy-1-(phenylsulfanyl)butan-2-yl]carbamate] yielded an IC50 of 0.28 nM.

With `CC(C)(C)NC(=O)C1C[C@@H]2SCC[C@@H]2CN1C[C@@H](O)[C@H](CSc1ccccc1)NC(=O)O[C@@H]1CCS(=O)(=O)C1` (some centres not stated) [hydroxyethylene isostere], the half-maximal inhibitory concentration (IC50) was 2 nM. `CC(C)(C)NC(=O)C1C[C@@H]2SCC[C@@H]2CN1C[C@@H](O)[C@H](CSc1ccccc1)NC(=O)O[C@H]1CCS(=O)(=O)C1` (some centres not stated) [hydroxyethylene isostere] had an IC50 of 1.7 nM. The same measure, in the same setting: with `CC(C)[C@H]1[C@@H](OC(=O)N[C@@H](Cc2ccccc2)[C@H](O)CN2C[C@H]3CCCC[C@H]3CC2C(=O)NC(C)(C)C)CCS1(=O)=O` (some centres not stated) [hydroxyethylene isostere] the figure was 8.1 nM; with `C[C@@H]1[C@@H](OC(=O)N[C@@H](CSc2ccccc2)[C@H](O)CN2C[C@H]3CCS[C@H]3CC2C(=O)NC(C)(C)C)CCS1(=O)=O` (some centres not stated) [hydroxyethylene isostere], 5.2 nM. `C[C@@H]1[C@H](OC(=O)N[C@@H](CSc2ccccc2)[C@H](O)CN2C[C@H]3CCS[C@H]3CC2C(=O)NC(C)(C)C)CCS1(=O)=O` (some centres not stated) [hydroxyethylene isostere] showed a concentration for half-maximal inhibition (IC50) of 0.75 nM. `C[C@@H]1[C@H](OC(=O)N[C@@H](Cc2ccccc2)[C@H](O)CN2C[C@H]3CCCC[C@H]3CC2C(=O)NC(C)(C)C)CCS1(=O)=O` (some centres not stated) [hydroxyethylene isostere]: the IC50 turned out to be 10 nM. Molecule `C[C@H]1OCC[C@H]1OC(=O)N[C@@H](CSc1ccccc1)[C@H](O)CN1C[C@H]2CCS[C@H]2CC1C(=O)NC(C)(C)C` (some centres not stated) [hydroxyethylene isostere] displayed an IC50 of 3 nM. `C[C@H]1[C@@H](OC(=O)N[C@@H](CSc2ccccc2)[C@H](O)CN2C[C@H]3CCS[C@H]3CC2C(=O)NC(C)(C)C)CCS1(=O)=O` (some centres not stated) [hydroxyethylene isostere] yielded an IC50 of 0.4 nM. In turn, `C[C@H]1[C@H](OC(=O)N[C@@H](CSc2ccccc2)[C@H](O)CN2C[C@H]3CCS[C@H]3CC2C(=O)NC(C)(C)C)CCS1(=O)=O` (some centres not stated) [hydroxyethylene isostere] gave an IC50 of 1.4 nM.

The values above are taken from BindingDB's records for doi:10.1016/0960-894X(95)00507-P (Eli Lilly, 1995).
